Consider 2 molecules from US20250059139A1, “COMPOUNDS FOR TREATMENT OF CANCER” (THE JOHNS HOPKINS UNIVERSITY, priority 2021, published 2025).

One data set relates to LNCaP cells. The data set can be described thus: In vitro growth of LNCaP cells. It is filed as cell-based, human. To be noted: for LNCaP growth when combined with 3 nM docetaxel: 10 μM compound + 3 nM docetaxel. An excerpt:
Prostate Cancer Models. The source, history, and characteristics of the human prostate cancer cell lines and PDXs used, as well as cell culture conditions for their in vitro maintenance and the in vivo protocol for xenograft growth in triple immune-deficient NSG (i.e. NOD.Cg-PrkdcScidIl2rgtmlWji/Szj), adult (>8 week old) male mice obtained from the Sidney Kimmel Comprehensive Cancer Center (SKCCC) Animal Core Facility are described previously (Isaacs 2013; Brennen et al. JCI Insight. 2021, 6(8):e146827; Zhu et al. Oncogene 2020, 39(45): 6935-6949). Similar information concerning the TRAMP-C2 and B6CaP mouse prostate cancers originating in a C57BL/6J male mice are described previously (Foster et al. Cancer Res. 1997, 57: 3325-3330; Simons et al. Oncotarget. 2019, 10(64):6845-6854). In vitro growth curves were determined as described (Isaacs 2013). In vivo growth response to oral daily TasQ (10 mg/kg/d) of TRAMP-C2 mouse prostate cancers was evaluated in C57BL/6J syngeneic wild type vs. NOX-2 vs. iNOS null male mice obtained from Jackson Laboratory (Bar Harbor, ME). Growth response to oral daily TasQ (10 mg/kg/d) of TRAMP-C2 and B6CaP mouse prostate cancers was also evaluated in S100A9 null C57BL′6J male mice obtained from Dmitry Gabrilovich (Wistar Institute). All lines were mycoplasma negative using the MycoSensor PCR Assay kit (Agilent Technologies) and genetically authenticated within the last 6 months using short tandem repeat profiling conducted by the Johns Hopkins Genetic Resource Core Facility. In vitro growth curves were determined as described (Isaacs 2013). Growth response to daily oral TasQ vs. ESATA-20 (both at 10 mg/kg/d) of Myc-CaP-CR mouse prostate cancer was evaluated in syngeneic FVB/NJ castrate male mice from Jackson Laboratory. Animal studies were conducted according to animal protocols approved by Johns Hopkins Animal Care and Use Committee. Tumor volume measurements were as described previously (id.). In vivo experiments were repeated multiple independent times for each model used with 3-5 mice per treatment grouping.
Similarly, under such optimal conditions, knocking down HDAC4 expression by 50% with shRNA only decreases the growth of LNCaP cells by <25%, which is equivalent to the inhibition by TasQ at 10 μM (FIG. 22). […] In contrast to normoxic in vitro conditions, cancers outgrow their blood supply in vivo, producing a TME that is hypoxic, nutrient-limited, and acidic (low pH). For example, when prostate cancer xenografts growing subcutaneously reach a size of ˜0.2-0.3 cc, the TME is already hypoxic with a pO2 of 3.6+/−1.5 mmHg compared to 37.5+/−8.6 mmHg in normal tissue (Dalrymple et al. Prostate 72, 638-648 (2012)). […]

The target of a further data set is T1, human AHR (Homo sapiens, UniProt P35869).
T1 construct: from tissue; host or cells: liver cytosol of liver-specific hAHR transgenic mice
The experiment in a line: Photo-affinity ligand (PAL) competitive binding to human AHR in liver cytosol of hAHR transgenic mice. As to the method: AHR Binding Assay. Photo-affinity competitive ligand binding to the human AHR was performed as described previously (Brennen 2021).
This raises the issue of whether the induction of AHR target genes is a result of TasQ or one of its metabolites binds to AHR as a ligand. To test whether TasQ is an AHR ligand, liver cytosol lacking microsomal CYPs was isolated from liver-specific human AHR (hAHR)-expressing transgenic mice.

The nature of data set [1]: Pharmacokinetic (PK) analysis after oral dosing in mice. It is filed as in vivo, mouse. The note with it: for half-life: oral, 10 mg/kg. As to the method: Oral Drug treatment. TasQ at the indicated dose was initially dissolved with equal molar 1 N sodium hydroxide. This solution was diluted with sterile water and the mixture stirred for 1 hr. The pH was then adjusted with 1 N HCl to 8.9 and 200 μL given daily via oral gavage.
Pharmacokinetic (PK) Analysis. Plasma or serum samples; 50 uL of plasma or serum was transferred into a 1.7 mL microfuge tube. Three volumes of acetonitrile containing 0.1% TFA was added and the sample was vortexed for 1 to 3 minute, then centrifuged at 13,000 RPM in a microcentrifuge. 120 uL of the resulting supernatant was loaded into a sample loop with a cut off volume of 100 uL and injected into the HPLC onto a C18 reverse phase column. The HPLC system was a WATERS 600 series quaternary system with a 2487 dual wavelength detector set at 215 nm and 332 nm. Mobile phase A was 5% Acetonitrile/water, 0.1% TFA Mobile phase B was 95% Acetonitrile/water, 0.1% TFA 1.5 mL/min 20% B to 98% B in 10 minutes, hold for 5 minutes return to initial condition for 4 minutes/Retention time for tasquinimod was 11 min, RT for ESATA20 was 13.3 min with no observable interference from endogenous mouse peaks.

pEC50, pIC50: −log10 of the molar value. Read-outs that look alike come from different tables or passages of the source.

T1 sequence (P35869 11-848): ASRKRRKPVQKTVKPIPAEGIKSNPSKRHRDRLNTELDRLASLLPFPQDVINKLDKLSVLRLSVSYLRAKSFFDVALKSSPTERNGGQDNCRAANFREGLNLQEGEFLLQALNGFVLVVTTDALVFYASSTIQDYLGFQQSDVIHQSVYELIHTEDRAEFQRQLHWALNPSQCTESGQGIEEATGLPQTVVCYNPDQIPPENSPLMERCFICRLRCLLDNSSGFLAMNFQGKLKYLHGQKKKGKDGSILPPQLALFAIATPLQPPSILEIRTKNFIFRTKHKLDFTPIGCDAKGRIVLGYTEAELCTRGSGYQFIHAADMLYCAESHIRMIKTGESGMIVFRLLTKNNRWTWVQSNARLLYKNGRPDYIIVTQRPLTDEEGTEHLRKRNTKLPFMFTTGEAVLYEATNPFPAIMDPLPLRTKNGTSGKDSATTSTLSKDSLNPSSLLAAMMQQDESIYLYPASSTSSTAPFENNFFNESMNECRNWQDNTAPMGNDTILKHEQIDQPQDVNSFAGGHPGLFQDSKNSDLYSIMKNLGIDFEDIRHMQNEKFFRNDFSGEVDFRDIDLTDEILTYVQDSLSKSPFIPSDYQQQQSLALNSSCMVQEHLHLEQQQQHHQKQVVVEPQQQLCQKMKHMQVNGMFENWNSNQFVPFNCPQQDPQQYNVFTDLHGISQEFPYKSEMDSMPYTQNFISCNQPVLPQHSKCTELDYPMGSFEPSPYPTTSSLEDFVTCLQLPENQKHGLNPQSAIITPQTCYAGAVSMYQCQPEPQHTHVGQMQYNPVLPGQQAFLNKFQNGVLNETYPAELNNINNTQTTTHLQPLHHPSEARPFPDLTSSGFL

For the molecule `COc1cccc2c1c(O)c(C(=O)N(C)c1ccc(C(F)(F)F)cc1)c(=O)n2C` [TasQ, Tasquinimod], the “LNCaP growth when combined with 3 nM docetaxel” value with LNCaP cells is on record as “does not occur”. For the same molecule, the inhibition (as a rule, the change of the read-out against control, counted positive when it falls) at 10 µM in the data set on LNCaP cells (Homo sapiens, LNCaP, 10 μM, normoxic) is < 25%. The pEC50 (as a rule, the EC50 on a negative log10 scale, so that one unit is a factor of ten) on human AHR (20 min competitive binding, liver cytosol of hAHR transgenic mice, read-out: EC50 as competitive ligand for human AHR (PAL assay)) was 6.00. Further, the Cmax – broadly, the peak of the concentration-time curve – in data set [1] (10 mg/kg oral dose, read-out: serum Cmax) was 44 µM; in data set [1] (oral 5 mg/kg/d, 1 hr post-dosing, read-out: serum Cmax), 20 µM. Further, the “serum drug level maintained” value in data set [1] (4-week old FVB male mice, oral 10 mg/kg/d over 14 days) is > 1 µM.

In the case of `COc1cccc2c1c(O)c(C(=O)N(c1ccc(C(F)(F)F)cc1)C1CCCCC1)c(=O)n2C` [ESATA-20], the “LNCaP growth when combined with 3 nM docetaxel” value with LNCaP cells was “completely inhibited”. For the same molecule, the pIC50 – broadly, the negative decadic logarithm of the IC50, by convention in mol/L – in the data set with LNCaP cells (Homo sapiens, LNCaP line) was < 5.00. Further, the “fold lower binding affinity than TasQ” value on human AHR (competitive PAL AHR binding assay and cell-based AHR-promoter assay) was found to be 10 fold. Moreover, the “fold lower bioavailability than TasQ” value in data set [1] (10 mg/kg oral) is listed as 5.5 fold. The “drug bound to serum proteins” value in data set [1] (mouse, in vivo) is listed as > 98%. Also, the half-life (commonly the time needed for the level to fall by half in the phase considered) in data set [1] (mouse, serum, read-out: alpha half-life for tissue distribution (converted)) was 3 h; in data set [1] (mouse, serum, read-out: beta half-life for serum elimination), 10 to 12 h. In data set [1] (mouse, serum, 10 mg/kg oral dose), this molecule yielded a Cmax of 7.91 µM.
